The text below walks through data of patent US4017607A.

The subject of series [1] is gram-negative and gram-positive bacteria. Nature of the series: Antibacterial activity (in words). The class given is cell-based.
Series [2] concerns Staphylococcus aureus 209P. Nature of the series: Minimum inhibitory concentration, serial dilution method, Brain Heart Infusion broth. The series is classed as cell-based. Particulars: read-out: Minimum Inhibitory Concentration.
Series [3] relates to Streptococcus faecalis ATCC 8043. Nature of the series: Minimum inhibitory concentration, serial dilution method. The series is classed as cell-based. The conditions noted are these: Enterococcus faecalis, read-out: Minimum Inhibitory Concentration.
Series [4] concerns Streptococcus hemolyticus D-90. The description is as above. The class given is cell-based. Particulars: Streptococcus pyogenes, read-out: Minimum Inhibitory Concentration.
The test system of series [5] is Diplococcus pneumoniae Type I. Described as above. The series is classed as cell-based. The conditions noted are these: Streptococcus pneumoniae, read-out: Minimum Inhibitory Concentration.
Series [6] concerns Staphylococcus aureus Terajima. The description is as above. The series is classed as cell-based. Particulars: read-out: Minimum Inhibitory Concentration.
For series [7], the system named is Bacillus subtilis PCI 219. The description is as above. The series is classed as cell-based. The conditions noted are these: read-out: Minimum Inhibitory Concentration.
Series [8] relates to Streptococcus pyogenes D-58. The series is described as above. The class given is cell-based. Particulars: read-out: Minimum Inhibitory Concentration.
The test system of series [9] is Diplococcus pneumoniae Type III. Described as above. The series is classed as cell-based. The conditions noted are these: Streptococcus pneumoniae, read-out: Minimum Inhibitory Concentration.
Series [10] concerns Staphylococcus aureus Smith. The series is described as above. The series is classed as cell-based. Particulars: read-out: Minimum Inhibitory Concentration.
Series [11] concerns Bacillus anthracis No. 119. Nature of the series: microbe, parasite or virus in culture. The class given is cell-based. The conditions noted are these: NO.119, 24 h, read-out: Minimum Inhibitory Concentration.
Series [12] relates to Corynebacterium diphtheriae Type gravis. Nature of the series: Minimum inhibitory concentration, serial dilution method. The class given is cell-based. Particulars: read-out: Minimum Inhibitory Concentration.
Series [13] has as its system Streptococcus hemolyticus Cook. The series is described as above. The class given is cell-based. Particulars: Streptococcus pyogenes, read-out: Minimum Inhibitory Concentration.
Series [14] concerns Staphylococcus albus 1200A. The series is described as above. The series is classed as cell-based. Particulars: read-out: Minimum Inhibitory Concentration.
In another series the test system is Sarcina lutea. Described as above. The conditions noted are these: Micrococcus luteus, read-out: Minimum Inhibitory Concentration. The series is classed as cell-based.
For series [15], the system named is Corynebacterium diphtheriae Type intermedius. The description is as above. The class given is cell-based. The conditions noted are these: read-out: Minimum Inhibitory Concentration.
Series [16] concerns Bacillus subtilis ATCC 6633. The description is as above. The class given is cell-based. The conditions noted are these: read-out: Minimum Inhibitory Concentration.
For series [17], the system named is Staphylococcus aureus 209P. Particulars: 7th day, 10 mice per group.
The nature of series [18]: Acute toxicity by oral administration to mice. Particulars: mouse, in vivo, free base.
Where [19] appears, read: Corynebacterium diphtheriae, 24 h.

The LD50 is the dose expected to kill half of the subjects tested.

In brackets after ≈: the same amount, converted by molar mass. Like-named read-outs stand apart in the source and are kept apart here.

`CCC(=O)OC1CC(=O)OC(C)CC=CC=CC(OC(C)=O)C(C)CC(C=COC(C)=O)C(OC2OC(C)C(OC3CC(C)(OC(=O)CC)C(OC(C)=O)C(C)O3)C(N(C)C)C2OC(C)=O)C1OC` (centres unmarked): in series [1], the antibacterial activity entry was “substantially no antibacterial activity”.
On the same count and under the same terms, in the case of `CCC(=O)OC1CC(=O)OC(C)CC=CC=CC(OC(C)=O)C(C)CC(C=COC(C)=O)C(OC2OC(C)C(OC3CC(C)(OC(=O)CC)C(OC(C)=O)C(C)O3)C(N(C)C)C2O)C1OC` (centres unmarked) it was “no antibacterial activity”.
“9,2' -di-acetyl-18,3" -di-propionyl SF-837 substance”: in series [1], the antibacterial activity entry is given as “observed”.
Turning to `CCC(=O)OC=CC1CC(C)C(OC(C)=O)C=CC=CCC(C)OC(=O)CC(OC(=O)CC)C(OC)C1OC1OC(C)C(OC2CC(C)(OC(=O)CC)C(OC(=O)CC)C(C)O2)C(N(C)C)C1O` (centres unmarked) [9-acetyl-18,3"-di-propionyl SF-837 substance], the antibacterial activity entry in series [1] is given as “Not observed”.
`CCC(=O)OC1C=CC=CCC(C)OC(=O)CC(OC(=O)CC)C(OC)C(OC2OC(C)C(OC3CC(C)(OC(=O)CC)C(OC(=O)CC)C(C)O3)C(N(C)C)C2O)C(CC=O)CC1C` (centres unmarked) [Compound No. 7]: the MIC in [2] (Staphylococcus aureus 209P, 24 hours, 37° C) is 0.78 µg/mL (≈ 0.842 µM); in series [3] (ATCC8043, Streptococcus faecalis ATCC 8043, 24 hours, 37° C), 0.78 µg/mL (≈ 0.842 µM); in [4] (D90, Streptococcus hemolyticus D-90, 24 hours, 37° C), 1.56 µg/mL (≈ 1.68 µM); in series [5] (Diplococcus pneumoniae Type I, 24 hours, 37° C), 0.19 µg/mL (≈ 0.205 µM); in [6] (Staphylococcus aureus Terajima, 24 hours, 37° C) it was 1.56 µg/mL (≈ 1.68 µM); in series [7] (PCI219, Bacillus subtilis PCI 219, 24 hours, 37° C) it was 0.78 µg/mL (≈ 0.842 µM). Also, the MIC in series [8] (D58, Streptococcus pyogenes D-58, 24 hours, 37° C) was 0.09 µg/mL (≈ 0.0972 µM); in series [9] (Diplococcus pneumoniae Type III, 24 hours, 37° C), 0.09 µg/mL (≈ 0.0972 µM); in series [10] (Staphylococcus aureus Smith, 24 hours, 37° C), 0.78 µg/mL (≈ 0.842 µM); in series [11] it was 0.78 µg/mL (≈ 0.842 µM); in series [12] (Corynebacterium diphtheriae Type gravis, 24 hours, 37° C), 0.19 µg/mL (≈ 0.205 µM); in series [13] (Streptococcus hemolyticus Cook, 24 hours, 37° C), 0.19 µg/mL (≈ 0.205 µM). Also, the MIC came to 1.56 µg/mL (≈ 1.68 µM) in [14] (Staphylococcus albus 1200A, 24 hours, 37° C); 0.09 µg/mL (≈ 0.0972 µM) in the series on Sarcina lutea (Sarcina lutea, 24 hours, 37° C); 0.19 µg/mL (≈ 0.205 µM) in [15] (Corynebacterium diphtheriae Type intermedius, 24 hours, 37° C); 1.56 µg/mL (≈ 1.68 µM) in series [16] (ATCC6633, Bacillus subtilis ATCC 6633, 24 hours, 37° C). For the same compound, the figures for the “Rate of surviving mice in each group of mice” value in series [17] (100 mg/kg oral) and in [17] (200 mg/kg oral) were 5/10 and 10/10, respectively.
Turning to `CCC(=O)OC1CC(=O)OC(C)CC=CC=CC(O)C(C)CC(CC=O)C(OC2OC(C)C(OC3CC(C)(O)C(OC(=O)CC)C(C)O3)C(N(C)C)C2O)C1OC` (centres unmarked) [SF-837 substance, reference compound], the MIC came out at 0.78 µg/mL (≈ 0.958 µM) in [2] (Staphylococcus aureus, 209P, 24 h); 1.56 µg/mL (≈ 1.92 µM) in [3] (ATCC8043, 24 h); 1.56 µg/mL (≈ 1.92 µM) in [4] (D90, 24 h); 0.04 µg/mL (≈ 0.0491 µM) in series [5] (24 h); 1.56 µg/mL (≈ 1.92 µM) in series [6] (Staphylococcus aureus, 24 h); 0.78 µg/mL (≈ 0.958 µM) in series [7] (Bacillus subtilis, PCI219, 24 h). The MIC in series [8] (Streptococcus pyogenes, D58, 24 h) was 0.09 µg/mL (≈ 0.111 µM); in series [9] (24 h), 0.04 µg/mL (≈ 0.0491 µM); in series [10] (Staphylococcus aureus, 24 h), 0.19 µg/mL (≈ 0.233 µM); in series [11] it was 0.78 µg/mL (≈ 0.958 µM); in series [12] (setting [19]) it was 0.19 µg/mL (≈ 0.233 µM); in series [13] (24 h) it was 0.09 µg/mL (≈ 0.111 µM). Also, the MIC in series [14] (Staphylococcus, 1200A, 24 h) was 0.78 µg/mL (≈ 0.958 µM); with Sarcina lutea (24 h) it was 0.09 µg/mL (≈ 0.111 µM); in series [15] (setting [19]) it was 0.19 µg/mL (≈ 0.233 µM); in [16] (Bacillus subtilis, ATCC6633, 24 h), 1.56 µg/mL (≈ 1.92 µM). The LD50 in series [18] came out at 3200 mg/kg. Also, the “Rate of surviving mice in each group of mice” value in [17] (100 mg/kg oral) was 0/10; in series [17] (200 mg/kg oral), 6/10.
